We go through 48 compounds from patent US8697694B2, “Substituted pyridine and pyrimidine derivatives and their use in treating viral infections” (priority 2008, dated 2014).

One experiment concerns HCV replicon cells. The experiment is described as follows: Cell-based HCV replicon assay (replicon RNA level by real time PCR, Taqman). Conditions: Hepatitis C virus, 72 h, HCV replicon cells, harvested day 3, replicon RNA by real time PCR; given as number; read-out: EC90 (μM) range. The procedure: Assays Cell-Based HCV Replicon Assay
To measure cell-based anti-HCV activity of the compounds of the present invention, replicon cells were seeded at 5000 cells/well in 96-well collagen I-coated Nunc plates in the presence of the compound of the invention. Various concentrations of a compound of the invention, typically in 10 serial 2-fold dilutions, were added to the assay mixture, the starting concentration of the compound ranging from 25 μM to 1 μM. The final concentration of DMSO was 0.5%, fetal bovine serum was 10%, in the assay media. Cells were harvested on day 3 by the addition of 1× cell lysis buffer (Ambion cat #8721). The replicon RNA level was measured using real time PCR (Taqman assay). The amplicon was located in 5B. The PCR primers were: 5B.2F, ATGGACAGGCGCCCTGA (SEQ. ID NO. 1); 5B.2R, […] (SEQ. ID NO. 2); the probe sequence was FAM-labeled CACGCCATGCGCTGCGG (SEQ. ID NO. 3). GAPDH RNA was used as endogenous control and was amplified in the same reaction as NS5B (multiplex PCR) using primers and VIC-labeled probe recommended by the manufacturer (PE Applied Biosystem). The real-time RT-PCR reactions were run on ABI PRISM 7900HT Sequence Detection System using the following program: 48′C for 30 min, 95° C. for 10 min, 40 cycles of 95° C. for 15 sec, 60° C. for 1 min. The ΔCT values (CT5B-CTGAPDH) were plotted against the concentration of test compound and fitted to the sigmoid dose-response model using GraphPad PRISM software. EC50 was defined as the concentration of inhibitor necessary to achieve ΔCT=1 over the projected baseline; EC90 the concentration necessary to achieve ΔCT=3.2 over the baseline. Alternatively, to quantitate the absolute amount of replicon RNA, a standard curve was established by including serially diluted T7 transcripts of replicon RNA in the Taqman assay. All Taqman reagents were from PE Applied Biosystems. Such an assay procedure was described in detail in e.g. Malcolm et al., Antimicrobial Agents and Chemotherapy 50: 1013-1020 (2006).
HCV Replicon assay data for compounds of the invention that were tested was obtained using the above method. Calculated EC90 values are reported for each compound in Table I as a falling within the following ranges: […]
Turning to `CCOc1cc2cc(-c3c(C)nc(NCc4nccs4)nc3N[C@@H]3C[C@H](CO)[C@@H](O)[C@H]3O)oc2c(C)n1` [Example 24], the 90% effect concentration (EC90) stood at 0.02 µM.

In the case of `CCOc1cc2cc(-c3c(C)nc(NC(C)C)nc3N[C@@H]3C[C@H](CO)[C@@H](O)[C@H]3O)oc2c(C)n1` [Example 32], the EC90 was 0.95 µM.

Still in this experiment, the particulars now being: Hepatitis C virus, 72 h, HCV replicon cells, harvested day 3, replicon RNA by real time PCR; reported as range class; read-out: EC90 (μM) range.
`CN(C)c1nc(Cl)c(-c2nc3ccccc3o2)c(N[C@@H]2C[C@H](CO)[C@@H](O)[C@H]2O)n1` [Example 117]: the 90% effect concentration (EC90) fell in the range of 0.5 to 5 µM. The same measure, in the same setting: the same measure for `COCCCNc1nc(Cl)c(-c2nc3ccccc3s2)c(N[C@@H]2C[C@H](CO)[C@@H](O)[C@H]2O)n1` [Example 222]: under 0.5 µM; for `CNC(=O)c1ccc2cc(-c3c(Cl)nc(N)nc3N[C@@H]3C[C@H](CO)[C@@H](O)[C@H]3O)oc2c1` [Example 177]: over 5 µM; for `Nc1nc(Cl)c(-c2nc3ccc(F)cc3s2)c(N[C@@H]2C[C@H](CO)[C@@H](O)[C@H]2O)n1` [Example 110]: 0.5 to 5 µM. On the same count and under the same terms, to `OC[C@H]1C[C@@H](Nc2nc(NCC(F)(F)F)nc(Cl)c2-c2nc3ccccc3s2)[C@H](O)[C@@H]1O` [Example 124] belongs under 0.5 µM; to `CNc1nc(C)c(-c2cc3cc(OC)nc(C)c3o2)c(N[C@@H]2C[C@H](CO)[C@@H](O)[C@H]2O)n1` [Example 17], under 0.5 µM. The same measure, in the same setting: the same measure for `CCc1nccc2cc(-c3c(Cl)nc(N)nc3N[C@@H]3C[C@H](CO)[C@@H](O)[C@H]3O)oc12` [Example 308]: under 0.5 µM.

The same experiment, now with this note: Hepatitis C virus, 72 h, HCV replicon cells, harvested on day 3, replicon RNA by real time PCR; calculated EC90 reported as range class; read-out: EC90 (μM) range.
`Cc1cc2cc(-c3c(C)nc(NCC(F)(F)F)nc3N[C@@H]3C[C@H](CO)[C@@H](O)[C@H]3O)oc2c(C)n1` [Example 457]: the concentration for an effect of 90% (EC90) was under 0.5 µM.

For the compound `Cc1cc2cc(-c3c(C)nc(NCC4CCCCC4)nc3N[C@@H]3C[C@H](CO)[C@@H](O)[C@H]3O)oc2c(C)n1` [Example 461], the EC90 was under 0.5 µM. Turning to `COCc1cc2cc(-c3c(C)nc(NCC(C)(C)C)nc3N[C@@H]3C[C@H](CO)[C@@H](O)[C@H]3O)oc2cn1` [Example 715], the EC90 was under 0.5 µM. The same measure, in the same setting: to `Cc1nc(NC(CF)CF)nc(N[C@@H]2C[C@H](CO)[C@H]3OC(C)(C)O[C@H]32)c1-c1nc2ccccc2s1` [Example 136] belongs 0.5 to 5 µM; to `Cc1nc(NCCc2ccccc2)nc(N[C@@H]2C[C@H](CO)[C@@H](O)[C@H]2O)c1-c1nc2ccccc2s1` [Example 445], under 0.5 µM; to `Cc1nc(NCCN(C)C)nc(N[C@@H]2C[C@H](CO)[C@@H](O)[C@H]2O)c1-c1nc2ccccc2s1` [Example 246], over 5 µM.

Turning to `Cc1ccc(CNc2nc(C)c(-c3nc4ccccc4s3)c(N[C@@H]3C[C@H](CO)[C@H]4OC(C)(C)O[C@H]43)n2)cc1` [Example 489], the concentration for an effect of 90% (EC90) was 0.5 to 5 µM. Same read-out and setting: the same measure for `COc1cc2cc(-c3c(C)nc(NCc4ccccn4)nc3N[C@@H]3C[C@H](CO)[C@H]4OC(C)(C)O[C@H]43)oc2c(C)n1` [Example 349]: 0.5 to 5 µM; for `COC[C@H](C)Nc1nc(Cl)c(-c2nc3ccccc3s2)c(N[C@@H]2C[C@H](CO)[C@@H](O)[C@H]2O)n1` [Example 438]: under 0.5 µM; for `Cc1nc(NCc2ccccc2C(F)(F)F)nc(N[C@@H]2C[C@H](CO)[C@H]3OC(C)(C)O[C@H]32)c1-c1nc2ccccc2s1` [Example 236]: over 5 µM.

Staying with this experiment, now noted: Hepatitis C virus, 72 h, HCV replicon cells, replicon RNA level by real time PCR (Taqman), harvested on day 3; calculated EC90 reported as range class; read-out: EC90 (μM) range.
Consider `COc1cc(CNc2nc(CF)c(-c3nc4ccccc4s3)c(N[C@@H]3C[C@H](CO)[C@@H](O)[C@H]3O)n2)cc(OC)c1` [Example 1121], for which the 90% effect concentration (EC90) was 0.5 to 5 µM. The same measure, in the same setting: to `Cc1ccccc1Nc1nc(C)c(-c2nc3ccccc3s2)c(N[C@@H]2C[C@H](CO)[C@@H](O)[C@H]2O)n1` [Example 1047] belongs 0.5 to 5 µM; to `CCc1cc2cc(-c3c(C)nc(NC)nc3N[C@@H]3C[C@H](CO)[C@@H](O)[C@H]3O)oc2cn1` [Example 527], under 0.5 µM; to `Cc1cc2sc(-c3c(C)nc(NCC(F)(F)F)nc3N[C@@H]3C[C@H](CO)[C@@H](O)[C@H]3O)nc2c(C)n1` [Example 1135], under 0.5 µM.

Consider `Cc1nc(N(C)Cc2ccccc2)nc(N[C@@H]2C[C@H](CO)[C@H]3OC(C)(C)O[C@H]32)c1-c1nc2ccccc2s1` [Example 1115], for which the 90% effect concentration (EC90) was over 5 µM.

Consider `COCCNc1nc(N)c(-c2nc3ccccc3s2)c(N[C@@H]2C[C@H](CO)[C@@H](O)[C@H]2O)n1` [Example 1302], for which the concentration for an effect of 90% (EC90) was 0.5 to 5 µM.

Consider `Cc1ccc(Nc2nc(C)c(-c3nc4ccccc4s3)c(N[C@@H]3C[C@H](CO)[C@@H](O)[C@H]3O)n2)cc1` [Example 1045], for which the EC90 was over 5 µM. On the same count and under the same terms, the same measure for `COc1cnccc1Nc1nc(C)c(-c2nc3ccccc3s2)c(N[C@@H]2C[C@H](CO)[C@@H](O)[C@H]2O)n1` [Example 1131]: over 5 µM.

Take `COCCCCNc1nc(C)c(-c2nc3cnccc3s2)c(N[C@@H]2C[C@H](CO)[C@@H](O)[C@H]2O)n1` [Example 1050]: the EC90 was under 0.5 µM. The same measure, in the same setting: the same measure for `CCc1nccc2sc(-c3c(C)nc(NCC(C)(C)C)nc3N[C@@H]3C[C@H](CO)[C@@H](O)[C@H]3O)nc12` [Example 1334]: under 0.5 µM; for `Cc1nc(N[C@H](C)c2ccc(F)cc2)nc(N[C@@H]2C[C@H](CO)[C@@H](O)[C@H]2O)c1-c1nc2cnccc2s1` [Example 1311]: under 0.5 µM; for `CCOCCCNc1nc(C)c(-c2nc3ccccc3s2)c(N[C@@H]2C[C@H](CO)[C@@H](O)[C@H]2O)n1` [Example 1041]: 0.5 to 5 µM.

Regarding `COc1cccc2sc(-c3c(C)nc(NCC4CC4)nc3N[C@@H]3C[C@H](C(C)O)[C@@H](O)[C@H]3O)nc12` (stereo partly drawn) [Example 1073], the EC90 was 0.5 to 5 µM.

`Cc1nc(NCC(C)(C)C)nc(N[C@@H]2CC[C@@H](O)[C@H]2O)c1-c1nc2cnccc2s1` [Example 1213]: the EC90 is over 5 µM. Turning to `Cc1ccc([C@H](C)Nc2nc(C)c(-c3nc4cnccc4s3)c(N[C@@H]3C[C@H](CO)[C@@H](O)[C@H]3O)n2)cc1` [Example 1314], the EC90 is 0.5 to 5 µM. The same measure, in the same setting: to `Cc1nc(NCc2cccs2)nc(N2CCC[C@H]2CO)c1-c1nc2ccccc2s1` [Example 1224] belongs over 5 µM. In the case of `Cc1nc(NCC(C)(F)F)nc(N[C@@H]2C[C@H](CO)[C@@H](O)[C@H]2O)c1-c1nc2ccccc2s1` [Example 1242], the EC90 was 0.5 to 5 µM. Still for that read-out and setting: the same measure for `Cc1nc(NC(C)c2ccco2)nc(N[C@@H]2C[C@H](CO)[C@@H](O)[C@H]2O)c1-c1nc2ccccc2s1` (stereo partly drawn) [Example 1102]: 0.5 to 5 µM; for `Cc1nc(Nc2ccccc2OCc2ccccc2)nc(N[C@@H]2C[C@H](CO)[C@H]3OC(C)(C)O[C@H]32)c1-c1nc2ccccc2s1` [Example 1124]: over 5 µM.

Staying with this experiment, now noted: Hepatitis C virus, 72 h, HCV replicon cells, replicon RNA level by real time PCR, harvested day 3; read-out: EC90 (μM) range.
On to `Cc1nc(NCC(F)(F)F)nc(N[C@@H]2C[C@H](O)[C@@H](O)[C@H]2O)c1-c1nc2ccccc2s1` [Example 1366], for which the 90% effect concentration (EC90) was 0.5 to 5 µM. With `Cc1nc(N[C@H](C)c2cccc(F)c2)nc(N[C@@H]2C[C@H](CO)[C@@H](O)[C@H]2O)c1-c1nc2c(C)nccc2s1` [Example 1524], the EC90 was under 0.5 µM. Same read-out and setting: to `Cc1nc(C#N)nc(N[C@@H]2C[C@H](CO)[C@@H](O)[C@H]2O)c1-c1nc2ccccc2s1` [Example 1904] belongs over 5 µM; to `CO[C@@H]1[C@H](O)[C@@H](CO)C[C@H]1Nc1nc(N[C@H](C)c2ccc(C)cc2)nc(C)c1-c1nc2cnccc2s1` [Example 1350], under 0.5 µM; to `Cc1nc(NCC2CC2)nc(N[C@@H]2CC[C@@H](O)C2O)c1-c1nc2ccccc2s1` (stereo partly drawn) [Example 1626], 0.5 to 5 µM. Still for that read-out and setting: the same measure for `Cc1nc(N(C)CC(F)(F)F)nc(N[C@@H]2C[C@H](CN(C)S(C)(=O)=O)[C@@H](O)[C@H]2O)c1-c1nc2ccccc2s1` [Example 1378]: over 5 µM. In the case of `CCOc1cc2sc(-c3c(C)nc(NCC4CC4)nc3N[C@@H]3C[C@H](CO)[C@@H](O)[C@H]3O)nc2c(C)n1` [Example 1374], the concentration for an effect of 90% (EC90) lay within 0.5 to 5 µM. The same measure, in the same setting: the same measure for `Cc1nc(NCC(F)(F)F)nc(N[C@@H]2CC[C@@H](O)[C@@]2(C)O)c1-c1nc2c(C)nccc2s1` [Example 1816]: under 0.5 µM; for `Cc1nc(NCC2CC2)nc(N[C@@H]2C[C@H](CO)[C@@H](O)[C@H]2O)c1-c1nc2c(OCC3CC3)nccc2s1` [Example 1338]: under 0.5 µM.

For the compound `Cc1ccc(CCNc2nc(C)c(-c3nc4ccccc4s3)c(N[C@@H]3C[C@H](CO)[C@@H](O)[C@H]3O)n2)s1` [Example 1812], the 90% effect concentration (EC90) was in the range of 0.5 to 5 µM.

Usually EC90 stands for the concentration needed for an effect of 90%.
